Results reported in US9834558B2, “Substituted bridged urea analogs as sirtuin modulators” (GLAXOSMITHKLINE LLC, priority 2013, dated 2017).
Like-named read-outs stand apart in the source and are kept apart here.

Target: T1, SIRT1 (Homo sapiens, UniProt Q96EB6)
T1 sequence (Q96EB6 1-747): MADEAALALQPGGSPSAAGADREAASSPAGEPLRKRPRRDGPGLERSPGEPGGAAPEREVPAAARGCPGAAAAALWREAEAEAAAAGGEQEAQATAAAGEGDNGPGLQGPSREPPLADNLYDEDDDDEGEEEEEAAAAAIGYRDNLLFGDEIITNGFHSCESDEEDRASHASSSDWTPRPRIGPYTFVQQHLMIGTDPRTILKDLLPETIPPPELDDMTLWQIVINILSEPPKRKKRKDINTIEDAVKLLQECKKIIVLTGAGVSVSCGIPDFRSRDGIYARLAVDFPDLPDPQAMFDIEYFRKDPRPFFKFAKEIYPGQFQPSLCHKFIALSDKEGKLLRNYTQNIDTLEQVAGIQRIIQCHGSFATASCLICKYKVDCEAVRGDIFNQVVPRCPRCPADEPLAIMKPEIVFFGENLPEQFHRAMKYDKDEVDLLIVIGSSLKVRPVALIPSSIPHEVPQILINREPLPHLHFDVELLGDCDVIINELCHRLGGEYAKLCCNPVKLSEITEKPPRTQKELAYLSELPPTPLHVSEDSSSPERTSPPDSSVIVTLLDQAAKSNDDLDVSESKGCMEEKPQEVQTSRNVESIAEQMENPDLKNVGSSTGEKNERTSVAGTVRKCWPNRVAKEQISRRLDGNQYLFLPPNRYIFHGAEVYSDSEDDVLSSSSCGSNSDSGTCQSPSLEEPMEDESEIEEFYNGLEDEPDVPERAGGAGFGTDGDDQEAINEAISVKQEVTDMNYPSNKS
Test: Trp mass spectrometry assay of SIRT1 activation
Type: biochemical
Details: for TRP Activity (EC1.5): EC1.5 = concentration that results in 150% activation of SIRT1
Outline: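 N-terminal His-tagged human SIRT1 (10 nM, E. coli BL21(DE3)) with 0.5 μM Ac-RHKK(Ac)W-NH2 peptide and 120 μM βNAD+, 25 min at 25 °C in HEPES pH 7.5, formic acid stop. OAADPR or deacetylated peptide quantified by mass spectrometry; EC1.5 (50% activity increase over control) and Percent Maximum Activation reported.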

[1] = concentration giving 150% activation of SIRT1, Trp peptide substrate
[2] = Trp mass spectrometry assay, concentration of test compound giving 150% activation of SIRT1
[3] = Trp peptide assay, maximum activity relative to control (100%), read-out: TRP MAX RESP (percent maximum fold activation)
[4] = Trp mass spectrometry assay, EC1.5 = concentration of test compound that results in 150% activation of SIRT1

SMILES | TRP Activity (EC1.5) (Trp peptide assay) | Emax [3] [%] | further results
CC(C)(C)OC(=O)NCCCc1cc(NC(=O)N2c3nc(-c4cccc(C(F)(F)F)c4)ccc3N3CCC[C@H]2C3)cc(-c2cnco2)c1 [Example 754] | – | – | Tryp AVG EC1.5 (μM) [1]: A (A (EC1.5<1 μM)); Emax (percent maximum fold activation of SIRT1, Trp peptide substrate, read-out: Tryp % Fold Act): > 150%
CN(C)c1cccc(-c2ccc3c(n2)N(C(=O)Nc2ccccn2)[C@H]2CCCN3C2)c1 [Example 386] | – | – | Tryp AVG EC1.5 (μM) [2]: B (B (EC1.5 1-25 μM))
CN(C)c1cc(-c2ccc3c(n2)N(C(=O)Nc2cnccn2)[C@H]2CCN3C2)ccn1 [(9S)-5-[2-(dimethylamino)pyridin-4-yl]-N-(pyrazin-2-yl)-1,6,8-triazatricyclo[7.2.1.0 {2,7}]dodeca-2(7),3,5-triene-8-carboxamide] | B (B (EC1.5 1-25 μM)) | > 150 | –
Cc1ncc(-c2ccc3c(n2)N(C(=O)Nc2cnccn2)[C@H]2CCN3C2)cc1F [(9S)-5-(5-fluoro-6-methylpyridin-3-yl)-N-(pyrazin-2-yl)-1,6,8-triazatricyclo[7.2.1.0 {2,7}]dodeca-2(7),3,5-triene-8-carboxamide] | B (B (EC1.5 1-25 μM)) | > 150 | –
O=C(Nc1cccnn1)N1c2nc(-c3cncc(C(F)(F)F)c3)ccc2N2C[C@@H](O)[C@H]1C2 [Example 701] | – | – | Tryp AVG EC1.5 (μM) [1]: B (B (EC1.5 1-25 μM))
O=C(Nc1cccc(-n2cncn2)c1)N1c2nc(-c3cccc(C(F)(F)F)c3)ccc2N2CC[C@H]1C2 [Example 581] | – | – | Tryp AVG EC1.5 (μM) [4]: A (A (EC1.5<1 μM))
Cn1nc(C(F)(F)F)cc1-c1ccc2c(n1)N(C(=O)Nc1cnccn1)[C@H]1CCN2C1 [(9S)-5-[1-methyl-3-(trifluoromethyl)-1H-pyrazol-5-yl]-N-(pyrazin-2-yl)-1,6,8-triazatricyclo[7.2.1.0 {2,7}]dodeca-2(7),3,5-triene-8-carboxamide] | B (B (EC1.5 1-25 μM)) | > 150 | –
Cc1ccc(-c2ccc(NC(=O)N3c4nc(-c5cccc(C(F)(F)F)c5)ccc4N4CC[C@H]3C4)cc2)o1 [Example 582] | – | – | Tryp AVG EC1.5 (μM) [4]: B (B (EC1.5 1-25 μM))
O=C(Nc1cnccn1)N1c2nc(-c3ccnc(N4CC[C@H](F)C4)c3)ccc2N2CC[C@H]1C2 [Example 436] | – | – | Tryp AVG EC1.5 (μM) [4]: A (A (EC1.5<1 μM))
N#Cc1ccc(-c2ccc3c(n2)N(C(=O)Nc2cnccn2)[C@H]2CCN3C2)cn1 [(9S)-5-(6-cyanopyridin-3-yl)-N-(pyrazin-2-yl)-1,6,8-triazatricyclo[7.2.1.0 {2,7}]dodeca-2,4,6-triene-8-carboxamide] | C (C (EC1.5>25 μM)) | < 150 | –
CC1(CCC(=O)NCc2ccc(NC(=O)N3c4nc(-c5cccc(C(F)(F)F)c5)ccc4N4CC[C@H]3C4)cc2)N=N1 [Example 548] | – | – | Tryp AVG EC1.5 (μM) [4]: B (B (EC1.5 1-25 μM))
COc1cc(NC(=O)N2c3nc(-c4cccc(Cl)c4)ccc3N3CCC[C@H]2C3)ncn1 [Example 408] | – | – | Tryp AVG EC1.5 (μM) [2]: A (A (EC1.5<1 μM))
CCc1nnc(NC(=O)N2c3nc(-c4cccc(C(F)(F)F)c4)ccc3N3CC[C@H]2C3)s1 [Example 647] | – | – | Tryp AVG EC1.5 (μM) [1]: A (A (EC1.5<1 μM))
Cc1ccc(-c2ccc3c(n2)N(C(=O)Nc2nc4ccc(F)cc4s2)[C@H]2CCN3C2)cn1 [(9S)-N-(6-fluoro-1,3-benzothiazol-2-yl)-5-(6-methylpyridin-3-yl)-1,6,8-triazatricyclo[7.2.1.0 {2,7}]dodeca-2,4,6-triene-8-carboxamide] | B (B (EC1.5 1-25 μM)) | – | Emax (read-out: TRP MAX RESP (percent maximum fold activation)): > 150%
CCc1cc(-c2ccc3c(n2)N(C(=O)Nc2cnccn2)[C@H]2CCN3C2)ccn1 [(9S)-5-(2-ethylpyridin-4-yl)-N-(pyrazin-2-yl)-1,6,8-triazatricyclo[7.2.1.0 {2,7}]dodeca-2(7),3,5-triene-8-carboxamide] | A (A (EC1.5<1 μM)) | > 150 | –
O=C(Nc1cccc(-c2cnco2)c1)N1c2nc(-c3cccc(Cl)c3)ccc2N2CC[C@H]1C2 [Example 365] | – | – | Tryp AVG EC1.5 (μM) [2]: A (A (EC1.5<1 μM))
C[C@H]1COCCN1c1ccc2c(n1)N(C(=O)Nc1cccnc1)[C@H]1CCN2C1 [(9S)-5-[(3S)-3-methylmorpholin-4-yl]-N-(pyridin-3-yl)-1,6,8-triazatricyclo[7.2.1.0^2,7]dodeca-2(7),3,5-triene-8-carboxamide] | B (B (EC1.5 1-25 μM)) | > 150 | –
CS(=O)(=O)c1cccc(-c2ccc3c(n2)N(C(=O)Nc2cccc(-c4cnco4)n2)[C@H]2CCN3C2)c1 [Example 715] | – | – | Tryp AVG EC1.5 (μM) [1]: B (B (EC1.5 1-25 μM))

SMILES | TRP Activity (EC1.5) (Trp peptide assay) | Emax [3] [%] | further results
CC(C)(C)c1nnc(NC(=O)N2c3nc(-c4cccc(C(F)(F)F)c4)ccc3N3CC[C@H]2C3)s1 [Example 649] | – | – | Tryp AVG EC1.5 (μM) [1]: B (B (EC1.5 1-25 μM))
Cn1ccc(-c2ccc3c(n2)N(C(=O)Nc2cnccn2)[C@H]2CCN3C2)cc1=O [(9S)-5-(1-methyl-2-oxo-1,2-dihydropyridin-4-yl)-N-(pyrazin-2-yl)-1,6,8-triazatricyclo[7.2.1.0^{2,7}]dodeca-2(7),3,5-triene-8-carboxamide] | B (B (EC1.5 1-25 μM)) | > 150 | –
CN(C)c1cccc(-c2ccc3c(n2)N(C(=O)Nc2ccc(F)cn2)[C@H]2CCCN3C2)c1 [Example 384] | – | – | Tryp AVG EC1.5 (μM) [2]: B (B (EC1.5 1-25 μM))
O=C(Nc1cncc(F)c1)N1c2nc(-c3ccnc(N4CCC(C(F)(F)F)C4)c3)ccc2N2CC[C@H]1C2 (stereo partly shown) [Example 410] | – | – | Tryp AVG EC1.5 (μM) [2]: A (A (EC1.5<1 μM))
Cc1ccc(-c2ccc3c(n2)N(C(=O)Nc2cccnc2)[C@H]2CCCN3C2)cn1 [Example 514] | – | – | Tryp AVG EC1.5 (μM) [4]: B (B (EC1.5 1-25 μM))
Cc1nc(NC(=O)N2c3nc(-c4cccc(Cl)c4)ccc3N3CC[C@H]2C3)sc1C [Example 102] | – | – | Tryp AVG EC1.5 (μM) (Trp peptide substrate, concentration giving 150% activation of SIRT1): A (A (EC1.5<1 μM))
Cc1cc(-c2ccc3c(n2)N(C(=O)Nc2ccc4c(c2)OCCO4)[C@H]2CCN3C2)ccn1 [(9S)-N-(2,3-dihydro-1,4-benzodioxin-6-yl)-5-(2-methylpyridin-4-yl)-1,6,8-triazatricyclo[7.2.1.0 {2,7}]dodeca-2(7),3,5-triene-8-carboxamide] | B (B (EC1.5 1-25 μM)) | > 150 | –
Cc1ccncc1-c1ccc2c(n1)N(C(=O)Nc1cccnn1)[C@H]1CCCN2C1 [Example 520] | – | – | Tryp AVG EC1.5 (μM) [4]: C (C (EC1.5>25 μM))
COc1cc(NC(=O)N2c3nc(-c4ccc(C)nc4)ccc3N3CCC[C@H]2C3)ncn1 [Example 478] | – | – | Tryp AVG EC1.5 (μM) [4]: B (B (EC1.5 1-25 μM))
CN1CCN(c2ccc3c(n2)N(C(=O)Nc2cnccn2)[C@H]2CCN3C2)CC1 [(9S)-5-(4-methylpiperazin-1-yl)-N-(pyrazin-2-yl)-1,6,8-triazatricyclo[7.2.1.0 {2,7}]dodeca-2(7),3,5-triene-8-carboxamide] | B (B (EC1.5 1-25 μM)) | > 150 | –
O=C(Nc1ccc(F)cn1)N1c2nc(-c3cncc(F)c3)ccc2N2CCC[C@H]1C2 [Example 431] | – | – | Tryp AVG EC1.5 (μM) [4]: A (A (EC1.5<1 μM))
O=C(O[C@@H]1CN2C[C@H]1N(C(=O)Nc1ccccn1)c1nc(-c3cccc(C(F)(F)F)c3)ccc12)c1ccccc1 [Example 603] | – | – | Tryp AVG EC1.5 (μM) [4]: C (C (EC1.5>25 μM))
O=C(NCC(F)(F)F)c1ccc2c(n1)N(C(=O)Nc1ccccn1)[C@H]1CCN2C1 [(9S)-8-N-(pyridin-2-yl)-5-N-(2,2,2-trifluoroethyl)-1,6,8-triazatricyclo[7.2.1.0 {2,7}]dodeca-2(7),3,5-triene-5,8-dicarboxamide] | A (A (EC1.5<1 μM)) | > 150 | –
Cc1nc(NC(=O)N2c3nc(-c4cccc(N5CCOCC5)c4)ccc3N3CCC[C@H]2C3)sc1C [Example 537] | – | – | Tryp AVG EC1.5 (μM) [4]: B (B (EC1.5 1-25 μM))
O=C(c1ccc2c(n1)N(C(=O)Nc1ccccn1)[C@H]1CCN2C1)N1CCC(F)(F)C1 [(9S)-5-[(3,3-difluoropyrrolidin-1-yl)carbonyl]-N-(pyridin-2-yl)-1,6,8-triazatricyclo[7.2.1.0 {2,7}]dodeca-2(7),3,5-triene-8-carboxamide] | B (B (EC1.5 1-25 μM)) | > 150 | –
Cc1ccc(-c2ccc3c(n2)N(C(=O)NC2CCOCC2)[C@H]2CCN3C2)cn1 [(9S)-5-(6-methylpyridin-3-yl)-N-(oxan-4-yl)-1,6,8-triazatricyclo[7.2.1.0^{2,7}]dodeca-2(7),3,5-triene-8-carboxamide] | C (C (EC1.5>25 μM)) | < 150 | –
O=C(Nc1cnccn1)N1c2nc(-c3cncc(C(F)(F)F)c3)ccc2N2C[C@@H](O)[C@H]1C2 [Example 695] | – | – | Tryp AVG EC1.5 (μM) [1]: B (B (EC1.5 1-25 μM))
